Test results reported in ChEMBL document CHEMBL2331554, “Exploring nature profits: development of novel and potent lipophilic antioxidants based on galloyl-cinnamic hybrids” (Eur J Med Chem, 2013).

Experiments:
[1] = system: Radical scavenging activity; test: Antioxidant activity assessed as inhibition of DPPH radical formation measured every min for 45 mins by spectrophotometric analysis; type: functional
[2] = Antioxidant activity assessed as inhibition of ABTS radical formation for 15 mins by spectrophotometric analysis; type: functional

Row | Molecule | IC50 [1] | inhibition [1] | IC50 [2] | inhibition [2]
1 | CCOC(=O)C(=Cc1cc(O)c(O)c(O)c1)C(=O)OCC | 12.8 µM | Dose-dependent effect | 7.7 µM | Dose-dependent effect
2 | CCOC(=O)/C=C/c1cc(O)c(O)c(O)c1 | 15.1 µM | Dose-dependent effect | 9 µM | Dose-dependent effect
3 | VITAMIN E [listing 1 of 2 here] | 31.1 µM | – | 26.8 µM | –
4 | O=C(O)/C=C/c1cc(O)c(O)c(O)c1 | 11.8 µM | Dose-dependent effect | 7.2 µM | Dose-dependent effect
5 | CCOC(=O)/C=C/c1ccc(O)c(O)c1 [ETHYL CAFFEATE] | 26.6 µM | Dose-dependent effect | 22.6 µM | Dose-dependent effect
6 | CCOC(=O)C(=Cc1ccc(O)c(O)c1)C(=O)OCC | 21.9 µM | Dose-dependent effect | 21.1 µM | Dose-dependent effect
7 | O=C(O)/C=C/c1ccc(O)c(O)c1 [CAFFEIC ACID] | 18.1 µM | Dose-dependent effect | 17.9 µM | Dose-dependent effect
8 | VITAMIN E [listing 2 of 2 here] | – | Dose-dependent effect | – | Dose-dependent effect
9 | O=C(O)c1cc(O)c(O)c(O)c1 [GALLIC ACID] | 9.9 µM | Dose-dependent effect | 7.8 µM | Dose-dependent effect
10 | Cc1c(C)c2c(c(C)c1O)CCC(C)(C(=O)O)O2 (stereo unspecified) [TROLOX] | 30.9 µM | Dose-dependent effect | 26.3 µM | Dose-dependent effect
